Reference: a compilation of properties of binary mixtures (doi:10.1007/s10953-013-9991-z)

Assay: xn = mol fraction of the nth substance listed
Conditions: 101 kPa

CN(C)C=O + CC[n+]1ccn(C)c1.F[B-](F)(F)F
x1 = 1
Conditions | speed of sound [m/s]
293.15 K | 1477.8
303.15 K | 1440.3
308.15 K | 1421

CNC=O + CC[n+]1ccn(C)c1.F[B-](F)(F)F
speed of sound [m/s]
Conditions | 293.15 K | 298.15 K | 303.15 K | 308.15 K
x1 = 0.0661 | 1633.3 | – | – | –
x1 = 0.0886 | 1633.3 | 1622.4 | 1611.3 | 1600.3
x1 = 0.1287 | 1633 | 1622.1 | 1610.8 | –
x1 = 0.1757 | 1631.7 | 1619.5 | 1607.8 | 1596.1
x1 = 0.2258 | 1628 | 1615.8 | 1603.3 | 1590.7
x1 = 0.2783 | 1622.6 | 1609 | 1595.9 | 1583.5
x1 = 0.3287 | – | 1601.7 | – | –
x1 = 0.3729 | 1608.1 | 1593 | – | –
x1 = 0.4259 | 1597.9 | 1582.3 | 1567.3 | 1552.1
x1 = 0.4766 | 1585.5 | 1569.5 | 1554.2 | 1539.1
x1 = 0.5291 | 1572.2 | – | 1540.2 | 1524.6
x1 = 0.5749 | 1559.2 | 1543.2 | – | 1511.9
x1 = 0.6252 | 1543.5 | 1527.8 | 1513 | 1496.9
x1 = 0.6773 | – | 1511.9 | 1496.9 | 1480.7
x1 = 0.7281 | 1511.5 | – | 1482 | –
x1 = 0.7744 | 1496.7 | – | 1467.9 | 1452.1
x1 = 0.8271 | 1481.1 | – | 1453 | 1437
x1 = 0.8782 | 1467.7 | 1453.9 | – | –
x1 = 1 | – | 1431.9 | 1417.7 | –

CC[n+]1ccn(C)c1.F[B-](F)(F)F + CN(C)C=O
speed of sound [m/s]
Conditions | 293.15 K | 298.15 K | 303.15 K | 308.15 K
x2 = 0 | 1631 | 1619.4 | 1607.6 | –
x2 = 0.0903 | 1625.1 | 1611.5 | 1598 | 1586
x2 = 0.1257 | – | 1609.6 | 1596 | 1583.1
x2 = 0.1717 | 1622.4 | – | 1594 | –
x2 = 0.2275 | 1621.4 | 1606.7 | 1591.9 | 1577.6
x2 = 0.2781 | 1620.2 | – | 1590.4 | 1574.8
x2 = 0.3276 | 1618.1 | 1603.9 | 1589.2 | 1572.2
x2 = 0.3781 | 1615.6 | 1601 | 1586.1 | 1569.6
x2 = 0.4227 | 1612.9 | 1598.5 | 1583.6 | 1565.4
x2 = 0.4757 | 1607.8 | – | 1577.9 | 1560.5
x2 = 0.5258 | – | 1586.4 | 1571.3 | 1553.1
x2 = 0.5697 | 1593.8 | 1579.9 | – | –
x2 = 0.6261 | 1582.9 | 1568.1 | 1552.6 | 1534.5
x2 = 0.6758 | – | – | 1541.3 | 1523.2
x2 = 0.7291 | 1558.1 | – | 1526.5 | 1508.1
x2 = 0.769 | 1546.4 | – | 1513.9 | 1496.7
x2 = 0.8268 | 1529.4 | 1512.2 | 1495.4 | 1478
x2 = 0.8789 | – | 1495.6 | 1478.4 | 1460.1

CC[n+]1ccn(C)c1.F[B-](F)(F)F + CNC=O
x2 = 0
Conditions | speed of sound [m/s]
293.15 K | 1631
298.15 K | 1619.4
303.15 K | 1607.6
308.15 K | 1596.3
